Columns and labels:
ApoE4-mediated toxicity [1] = experiment: Compound test in ApoE4 hitox yeast strain (PDR1 and PDR3 deleted), optical density at A600 after 24 hours; type: cell-based, Saccharomyces cerevisiae; details: A600, FIG. 10
Procedure: An ApoE4 hitox strain harboring 3-4 copies of the ApoE4 construct and with the drug-pump transcription factors PDR1 and PDR 3 deleted was used in this experiment. Cells were grown in raffinose; cells were diluted into galactose medium (to initiate expression of the expression construct). Test compounds were added to the cultures at various concentrations ranging from 0.25 μM to 32.0 μM; cells were grown for 24 hours after addition of the compounds, and the optical densities were then read at A600.

ApoE4-mediated toxicity [2] = details: known from other experiments; cited from earlier work
[3] = tested on: Ste3 endocytosis to the vacuole; experiment: Ste3-mKate2 endocytosis assay, fluorescence microscopy; type: cell-based, Saccharomyces cerevisiae; details: 6-8 hours of induction with galactose, FIG. 13
Text: The effect of ApoE on endocytosis in yeast was further analyzed using a Ste3-mKate2 assay. Ste3 is a yeast G-protein coupled receptor (GPCR) that natively undergoes endocytosis from the cell surface to the vacuole. When clathrin-mediated endocytosis is disrupted, Ste3 trafficking can be disrupted as well.
The trafficking of Ste3 was observed using fluorescence microscopy by overexpressing a fluorescently-tagged (mKate2) version of Ste3 from a pAG423 galactose-inducible plasmid. The ApoE4 hitox strain described above was transformed with the pAG423-Ste3-mKate2 plasmid. In addition, yeast strains as described in Example 4 harboring expression constructs encoding human neurodegenerative disease-associated proteins alpha-synuclein (α-syn intox) or Aβ (Kar2ss-Aβ strain described in Treusch, S., et al., Science. (2011), 334:1241-5) were also transformed with the pAG423-Ste3-mKate2 plasmid. A strain transformed with a Gal-GFP plasmid served as a negative control. […] (FIG. 13).

Compound	ability to reduce ApoE4-mediated toxicity (ApoE4-mediated toxicity [1]; 0.25 μM to 32.0 μM)	concentrations at which ApoE4-mediated toxicity is reduced (ApoE4-mediated toxicity [1])	toxicity of the compound itself to yeast (ApoE4-mediated toxicity [2])	effect on Ste3 endocytosis [3]
Oc1c(I)cc(Cl)c2cccnc12 [clioquinol]	able to reduce ApoE4-mediated toxicity	below 1.5 μM	becomes toxic to yeast at high concentrations	
Aβ: human amyloid beta expressed in yeast (Kar2ss-Aβ strain)				disruption of Ste3 endocytosis

From US11261453B2, “Cells expressing apolipoprotein E and uses thereof” (Whitehead Institute for Biomedical Research, priority 2014, dated 2022)
